# Assay results reported in patent publication US9393216B2, “Vaginal matrices: nanofibers for contraception and prevention of HIV infection” (priority 2012, dated 2016).
# Where two headings read alike, the source gives them in different places.
# Legend:
# TZM-bl cells = assay: Cytotoxicity in TZM-bl cells (CellTiter Blue); format: cell-based; conditions: for Cytotoxicity to TZM-bl cells: 48 h exposure to 24 h eluates of PVA fabrics, 20 wt.% theoretical loading
# Method: TZM-bl cells and HIV-1 BaL isolate are obtained. TZM-bl cells are a HeLa derived cell line that express CD4, CCR5 and CXCR4. Cells re plated in a black 96-well plate at a density of 5,000 cells/well (Corning, Corning, N.Y.) and maintained in Dulbecco's Modified Eagle Medium (DMEM) (Gibco Life Technologies) with 10% fetal bovine serum (Hyclone), 1% 100× penicillin/streptomycin (Invitrogen) and 1% 200 mM L-glutamine. […] Fibers were sterilized by UV irradiation for one hour per side prior to use. Treatments were added at a volume of 50 μL. Cytotoxicity is analyzed using the CellTiter Blue assay (Promega) to assess TZM-bl cell viability after 48 h of exposure to drug eluates from fiber release in cDMEM (24 h release, triplicate wells for each sample). Percent viability is calculated by normalizing to the average of media control wells (n=9). […] Positive control (12.5% DMSO) results in 4.6% viability. Data represents triplicate wells with error bars indicating standard deviation.
# [1] = Drug stability in fibers stored at room temperature; format: physicochemical; conditions: PLLA/PEO meshes, at least five months
# Method: Plates were then digitized using a scanner. Drug loading and stability is measured using fibers stored at room temperature (19-22° C.) for at least five months. […] UV-HPLC is used to quantify amount of drug in samples as previously described. Encapsulation efficiency is calculated as the amount of drug in drug-loaded fibers relative to the amount of drug detected in dissolved blank fibers spiked at 1% (wt/wt) drug loading.
# HIV-1 BaL [2] = assay: HIV-1 BaL infection inhibition assay in TZM-bl cells (luciferase); format: cell-based
# Method: TZM-bl cells and HIV-1 BaL isolate are obtained. TZM-bl cells are a HeLa derived cell line that express CD4, CCR5 and CXCR4. Cells re plated in a black 96-well plate at a density of 5,000 cells/well (Corning, Corning, N.Y.) and maintained in Dulbecco's Modified Eagle Medium (DMEM) (Gibco Life Technologies) with 10% fetal bovine serum (Hyclone), 1% 100× penicillin/streptomycin (Invitrogen) and 1% 200 mM L-glutamine. […] Fibers were sterilized by UV irradiation for one hour per side prior to use. Treatments were added at a volume of 50 μL. […] Percent viability is calculated by normalizing to the average of media control wells (n=9). For composite fabrics, the drug concentration shown applies to both the amount of LNG and of TFV (1:1 ratio). […] Data represents triplicate wells with error bars indicating standard deviation.
# Inhibition of infectious activity is quantified by measuring luminescence on a plate reader (Tecan). IC50 values of drug compounds re estimated using sigmoidal regression in Graphpad Prism, version 5.0.
# TZM-bl cells and HIV-1 BaL isolate re obtained from the NIH AIDS Research and Reference Reagent Program, Division of AIDS, NIAID, NIH (http://www.aidsreagent.org/). TZM-bL cells, a derived HeLa cell line that expresses CD4, CCR5, and CXCR4, were added to black 96-well plates (Corning, Corning, N.Y.) with Dulbecco's Modified Eagle Medium (DMEM) (Gibco Life Technologies) with 10% fetal bovine serum (Hyclone), 1% 100× penicillin/streptomycin (Invitrogen), and 1% 200 mM L-glutamine (Invitrogen) with […] at a density of 5,000 cells/well. […] Fibers re sterilized by UV irradiation for 2 h (1 h per side). Treatments were added in […]. For the HIV-infectious inhibition assay, […] (240 TCID/well) are added to wells 1 h after drug treatment. […] Infectious activity is quantified by measuring luminescence on a plate reader (Tecan).
# TZM-bl cells and HIV-1 BaL isolate re obtained from the NIH AIDS Research and Reference Reagent Program, Division of AIDS, NIAID, NIH (http://www.aidsreagent.org/). TZM-bL cells, a derived HeLa cell line that expresses CD4, CCR5, and CXCR4, are added to black 96-well plates (Corning, Corning, N.Y.) with Dulbecco's Modified Eagle Medium (DMEM) (Gibco Life Technologies) with 10% fetal bovine serum (Hyclone), 1% 100× penicillin/streptomycin (Invitrogen), and 1% 200 mM L-glutamine (Invitrogen) with 50 μL/well at a density of 5,000 cells/well. […] Treatments are diluted serially and randomly assigned to treatments A-E. A second operator, blinded to the identity of the treatments, added each in 50 μL volumes into duplicate wells (n=1 was used for PVP (D) and PEO Tween 20 (E) formulations only due to space limitations on the 96-well plate). 100 μL of HIV-BaL (240 TCID/well) was added to wells 1 h after drug treatment. […] Infectious activity was quantified by measuring luminescence on a plate reader (Tecan).
# HIV = conditions: cited from earlier work
# [3] = DPV release from PVP and EC fibers; format: physicochemical
# human swim-out sperm = assay: Sperm motility assay; format: cell-based; conditions: for Inhibition of sperm function: motility of purified (swim-out) human sperm
# Method: (§1) Sperm is obtained from two donors for sperm motility experiments. A third donor is recruited for sperm viability assays with glycerol monolaurate. Swim out sperm are obtained as described previously. Briefly, one can place 0.5 mL aliquots of semen below 3 mL of Ham's F-10 media (Sigma-Aldrich) with 0.5% human serum albumin (Sigma-Aldrich) for 75 min in 5% CO2 and 37° C. The aspirate, enriched for motile sperm, was centrifuged at 300 RCF for five min and resuspended in fresh Ham's F-10 to a concentration of 20×10^6 sperm/mL. The effect of drug dilutions on sperm motility are performed both in whole semen and in swimout sperm by adding […] of sperm and drugs to a slide and observing sperm motility with phase contrast either at 200× and 37° C. (ECLIPSE Ti, Nikon), or by adding 200 […] and quantifying sperm motility with computer aided motility analysis for up to 7 min after the addition of drug. Multiple media only controls are run to ensure that any observed change in motility was minimally dependent upon time since ejaculation. Sperm viability was measured by adding 20 […] of Trypan blue (Sigma-Aldrich) and counting 100 live or dead sperm based on head staining after a 10 min incubation using brightfield microscopy.
# [4] = system: human sperm in whole semen; assay: Sperm viability assay (Trypan blue); format: cell-based
# Method: as §1
# [5] = Cumulative release of TFV from PVA fiber meshes at pH 4.3 and pH 7.4; format: physicochemical; conditions: pH 4.3 and 7.4, small and large scale
# Method: FIG. 26. Burst release of TFV within 5 minutes at pH 4.3 and 7.4 is similar for meshes electrospun on small scale and large scales. Graphs display cumulative release of TFV in pH 4.3 citrate buffer (a,c) or pH 7.4 PBS (b,d) for fibers spun on small scale versus large scale instruments for pH adjusted and unadjusted solutions.
# [6] = In vitro release of TFV and LNG from PVA fabrics in 1:1 isopropanol:water; format: physicochemical
# Method: Drug loading is analyzed by dissolving approximately 5 mg of fibers in 20 mL of a mixture of 1:1 isopropanol:water in a glass vial. Triplicate samples are allowed to dissolve overnight at 37° C. on a rotational shaker and concentration is quantified using a Shimadzu Prominence LC20AD UV-HPLC system. A Phenomenex Luna C18 column (5 μM, 250×4.6 mm) and LC Solutions software are used to analyze samples.
# A method for dual analysis of TFV and LNG is developed using the following gradient method using mobile phase A (0.1% formic acid in water) and mobile phase B (acetonitrile). The run consisted of 0-5 minutes 72% mobile phase A, 5-10 minutes ramp to 15% mobile phase A, 10-20 minutes 15% mobile phase A, 20-25 minutes ramp to 72% mobile phase A, 25-30 minutes 72% mobile phase A. The total method time is 30 minutes, with an oven temperature of 30° C., a flow rate of 1 mL/min, and an injection volume of 20 μL. LNG is detected at 238 nm at a retention time of 18.5 minutes. TFV is detected at 259 nm at a retention time of 2.3 minutes.
# In vitro release was analyzed in a 1:1 solution of isopropanol:water due to the limited solubility of LNG in water. Sink conditions were maintained throughout the study for both drugs in the release media. Approximately 5 mg of fibers were prepared in triplicate and an appropriate volume of release media was added to maintain sink conditions of 2.6 mg/mL LNG as has been reported. Samples were incubated at 37° C. on a rotational shaker, and 200 μL samples of release media was taken as indicated. Fresh media was added to replace sample volume at each timepoint.
# HIV-1 BaL [7] = conditions: free (unformulated) drug; as reported previously; read-out: IC50 of free TFV; cited from earlier work
# [8] = Human immunodeficiency virus 1, BAL, TZM-bl, read-out: Final ARV drug concentration at IC50, drugs released from EC fibers (sustained)
# [9] = Human immunodeficiency virus 1, BAL, TZM-bl, read-out: Final ARV drug concentration at IC50, drugs released from PVA fibers (pericoital)
# [10] = single-drug PVA fibers, calculated for assumed 500 mg of fabric
molecule,measurement,setting,value
"Cc1cn([C@H]2C[C@H](N=[N+]=[N-])[C@@H](CO)O2)c(=O)[nH]c1=O [AZT, 3′-azido-3′-deoxythymidine]",Toxicity to TZM-bL cells,TZM-bl cells; compared with media controls,nontoxic
same,Initially-loaded drug detected in stored fiber meshes,[1],0.95%
same,IC50,"HIV-1 BaL [2]; Human immunodeficiency virus 1, BAL, TZM-bl, read-out: IC50, drug eluted from fibers",84 nM
same,IC50,"HIV-1 BaL [2]; Human immunodeficiency virus 1, BAL, TZM-bl, read-out: IC50, unformulated drug",120 nM
C[S+](C)[O-] [DMSO],"Viability, positive control",TZM-bl cells,4.6%
"Cc1cc(C)c(Nc2ccnc(Nc3ccc(C#N)cc3)n2)c(C)c1 [DPV, dapivirine]",Duration of prevention of localized and disseminated infection posttreatment,HIV,≤ 6 days
same,DPV release characteristics,[3]; from EC fibers,sustained release
same,DPV release characteristics,[3]; from PVP fibers,burst-release
"Cc1cc(C#N)cc(C)c1Oc1nc(Nc2ccc(C#N)cc2)nc(N)c1Br [ETR, etravirine]",IC50,HIV-1 BaL [2]; [8],2.7 nM
same,IC50,HIV-1 BaL [2]; [9],0.7 nM
"CCCCCCCCCCCC(=O)OCC(O)CO (centres unmarked) [GML, glycerol monolaurate]",Concentrations that inhibited sperm motility (complete spermiostasis),human swim-out sperm,0.05-0.5 % (wt/vol)
same,"EC50, reduction of sperm motility",human swim-out sperm; at 2 min,0.005 % wt/vol
same,Lowest concentration with reduction in motility,human swim-out sperm; no complete spermiostasis,≥ 0.00005 % (wt/vol)
same,Reduction of sperm viability,[4]; 5% (wt/vol),33.1%
same,Reduction of sperm viability,[4]; concentration not given,19.6%
"C#C[C@]1(O)CC[C@H]2[C@@H]3CCC4=CC(=O)CC[C@@H]4[C@H]3CC[C@@]21CC [LNG, levonorgestrel]",Cytotoxicity to TZM-bl cells,TZM-bl cells,induced by high concentrations
"Cc1nnc(C(=O)NC(C)(C)c2nc(C(=O)NCc3ccc(F)cc3)c(O)c(=O)n2C)o1 [RAL, raltegravir]",IC50,HIV-1 BaL [2]; [8],3.8 nM
same,IC50,HIV-1 BaL [2]; [9],1.2 nM
"C[C@H](Cn1cnc2c(N)ncnc21)OCP(=O)(O)O [TFV, tenofovir]",Time of burst release of TFV,[5],≤ 5 min
same,Cytotoxicity to TZM-bl cells,TZM-bl cells,not
same,Cumulative mass of drug released after 15 minutes,[6]; [10],~40 mg
same,Cumulative mass of drug released after 60 minutes,[6]; [10],~60 mg
same,Time to 100% TFV release,"[6]; single-drug or 1:1 TFV:LNG PVA fabrics, 20 wt.% theoretical loading",≤ 30 min
same,IC50,HIV-1 BaL [7],1800 nM
ferrous D-gluconate [FeGluc],Inhibition of sperm function,human swim-out sperm,ineffective
maraviroc [MVC],IC50,"HIV-1 BaL [2]; drugs released from EC fibers (sustained), read-out: Final ARV drug concentration at IC50",4.2 nM
same,IC50,"HIV-1 BaL [2]; drugs released from PVA fibers (pericoital), read-out: Final ARV drug concentration at IC50",1.6 nM
same,IC50,"HIV-1 BaL [2]; eluates released from PLLA/PEO fibers, read-out: IC50, drug eluted from fibers",2.3 nM
same,Globally shared best fit IC50,HIV-1 BaL [2]; pure maraviroc and maraviroc released from PVP/PEO electrospun formulations,6.96 ng/mL
same,IC50,"HIV-1 BaL [2]; pure maraviroc and maraviroc released from PVP/PEO electrospun formulations, read-out: Globally shared best fit IC50",13.5 nM
same,IC50,"HIV-1 BaL [2]; unformulated, read-out: IC50, unformulated drug",0.9 nM
methyl-β-cyclodextrin [MBCD],Inhibition of sperm function,human swim-out sperm,ineffective
